Assay results: publication PMC12085399, “Quantitative in vitro-to-in vivo extrapolation of human adrenergic and trace amine-associated receptor 1 potencies of pre-workout supplement ingredients using physiologically based kinetic modelling-based reverse dosimetry” (Archives of Toxicology, 2025)
Read-outs that look alike come from different tables or passages of the source.

Experiments:
[1] = system: ADRα1D; experiment: PBK modelling-based reverse dosimetry of in vitro EC50 to ED50, ADRα1D; conditions: predicted human oral ED50 from in vitro EC50 (Pinckaers et al. [2024]) and modelled Cmax plasma venous
Description: (§1) The in vitro effect concentrations (EC50), for activation of the α1A, α1B, α1D, α2A, α2B, β1 and β2 ADR activation and the activation of TAAR1, were obtained from our previous study (Pinckaers et al. [2024]).

[2] = system: TAAR1; experiment: PBK modelling-based reverse dosimetry of in vitro EC50 to ED50, TAAR1; set-up: species or system human; conditions: predicted human oral ED50 from in vitro EC50 (Pinckaers et al. [2024]) and modelled Cmax plasma venous
Description: as §1

[3] = system: ADRβ2; experiment: PBK modelling-based reverse dosimetry of in vitro EC50 to ED50, ADRβ2; conditions: predicted human oral ED50 from in vitro EC50 (Pinckaers et al. [2024]) and modelled Cmax plasma venous
Description: as §1

[4] = In vitro hepatic clearance by human liver S9 (compound depletion); format: in vitro ADME; conditions: for Predicted intrinsic hepatic metabolic clearance CLmet: CLint,u scaled to a whole liver, 121 mg HLS9/g liver; for Predicted intrinsic hepatic metabolic clearance CLmet / k el at 1 µM / microsomal CLint at 1 µM: human; for metabolism in incubations without co-factor mix: HLS9 without co-factor mix; for k el at 1 µM: pH 7.4, full reaction mix (HLS9 and co-factor mix), HLS9 concentration per compound (0.10-2 mg/mL), read-out: elimination rate constant k (converted)
Description: In vitro intrinsic hepatic clearance (CLint) values of the phenethylamine analogues were determined in experiments with pooled human liver S9 (HLS9; Corning, Woburn, MA, USA and Gibco, USA), by measuring the rate of compound depletion. Stocks of 1 mM PEA compounds were prepared in DMSO and stocks of 10 mg/mL alamethicin were prepared in methanol. The final incubation mixtures consisted of 1 µM of PEA compound (0.1% DMSO) in 100 mM potassium phosphate buffer with 5 mM magnesium chloride (pH 7.4) supplemented with 0.025 mg/mL alamethicin (0.25% methanol) and 0.1–2 mg/mL HLS9. […] Incubation mixtures were first pre-incubated at 37 °C in a shaking incubator at 300 rpm for 5 min. After 5 min, the reaction was initiated by adding a co-factor mix in supplemented buffer with final concentrations of 3 mM nicotinamide adenine dinucleotide phosphate (NADPH; for oxidation, reduction and hydrolysis), 5 mM uridine diphosphate glucuronic acid (UDPGA; for glucuronidation), 0.2 mM adenosine 3’-phosphate 5’-phosphosulfate lithium salt hydrate (PAPS; for sulfation) and 0.2 mM S-(5’-Adenosyl)-L-methionine p-toluenesulfonate salt (SAM; for methylation). The final incubation volume was 100 µL and incubations were performed in 1.5 mL Safe-Lock Eppendorf tubes (Eppendorf) in a shaking incubator (300 rpm) at 37 °C (Eppendorf Thermomixer). Incubations were terminated by adding 100 µL ice-cold acetonitrile after, 0, 2.5, 5, 10, 20, 40 and 60 min. Then, samples were vortexed, put on ice and stored at -20 °C until the day of the LC–MS/MS analysis. Controls of incubation mixtures without HLS9 or mixtures without co-factors were also included. Two independent experiments, both in duplicate, were performed on different days. On the day of the LC–MS/MS analysis, samples were thawed and centrifuged at 15,000 rpm for 10 min. The supernatant was collected in glass insert vials for LC injection (BGB Analytik, Harderwijk, The Netherlands). Details on the methods of the LC–MS/MS analysis are described in Sect. "LC–MS/MS analysis". After determining the PEA (analogue) amount at the different time points, the CLint was calculated. The natural logarithm of compound concentrations was plotted against time and the slope of this curve represented the elimination rate constant k (in 1/min). The half-life (t1/2 in minutes) was calculated by: ln (2)/k (in 1/min). The volume of incubation (V) in µL/mg protein was determined by: 1000 / HLS9 concentration (in mg/mL). Finally, CLint could be calculated by: CLintμL/min/mg protein=VμL/mg protein∗ln2/t1/2min.
The fraction unbound in these in vitro liver clearance incubations was calculated with the method of (Hallifax and Houston [2006]) in which unspecific binding in HLS9 incubations was assumed to be the same as in liver microsomal incubations. The in vitro obtained HLS9 CLint values were corrected for protein binding in the HLS9 incubation and were scaled to a whole liver by using a scaling factor of 121 mg HLS9/g liver (Houston and Galetin [2008]).

[5] = system: ADRβ1; experiment: PBK modelling-based reverse dosimetry of in vitro EC50 to ED50, ADRβ1; set-up: species or system human; conditions: predicted human oral ED50 from in vitro EC50 (Pinckaers et al. [2024]) and modelled Cmax plasma venous
[6] = system: ADRα1B; experiment: PBK modelling-based reverse dosimetry of in vitro EC50 to ED50, ADRα1B; conditions: predicted human oral ED50 from in vitro EC50 (Pinckaers et al. [2024]) and modelled Cmax plasma venous
Description: as §1

[7] = system: ADRα1A; experiment: PBK modelling-based reverse dosimetry of in vitro EC50 to ED50, ADRα1A; conditions: predicted human oral ED50 from in vitro EC50 (Pinckaers et al. [2024]) and modelled Cmax plasma venous
Description: as §1

[8] = system: ADRα2A; experiment: PBK modelling-based reverse dosimetry of in vitro EC50 to ED50, ADRα2A; conditions: predicted human oral ED50 from in vitro EC50 (Pinckaers et al. [2024]) and modelled Cmax plasma venous
Description: as §1

[9] = s9, pH 7.4, CLint app corrected for unspecific protein (HLS9) binding, read-out: In vitro CLint,u
[10] = s9, pH 7.4, human liver S9 with co-factor mix (NADPH, UDPGA, PAPS, SAM), 1 µM, read-out: In vitro CLint app

With `CN(C)CCc1ccccc1` [Dimethylphenethylamine, N,N-dimethylphenethylamine] the “ADRα1D ED50” value [1] was 5.60 mg/kg bw, the “TAAR1 ED50” value [2] was 14.0 mg/kg bw and the “ADRβ2 ED50” value [3] was “– (compounds with a dash (-) did not activate the receptors in vitro at concentrations ≤ 300 µM)”. For the same compound, the “Predicted intrinsic hepatic metabolic clearance CLmet” value [4] was 245 L/h, the “metabolism in incubations without co-factor mix” value [4] was “metabolized in incubations without co-factor mix” and the k el at 1 µM ([4]; 1 µM) was 0.000667 s⁻¹. For the same compound, the microsomal CLint at 1 µM [4, 9] was 23 µL/min/mg, the microsomal CLint at 1 µM [4, 10] was 20 µL/min/mg and the “ADRβ1 ED50” value [5] was “– (compounds with a dash (-) did not activate the receptors in vitro at concentrations ≤ 300 µM)”. For the same compound, the “ADRα1B ED50” value [6] was 4.07 mg/kg bw, the “ADRα1A ED50” value [7] was “– (compounds with a dash (-) did not activate the receptors in vitro at concentrations ≤ 300 µM)” and the “ADRα2A ED50” value [8] was “– (compounds with a dash (-) did not activate the receptors in vitro at concentrations ≤ 300 µM)”.

For `NCCc1ccccc1` [Phenethylamine, phenethylamine], the “ADRα1D ED50” value [1] was “– (compounds with a dash (-) did not activate the receptors in vitro at concentrations ≤ 300 µM)”, the “TAAR1 ED50” value [2] was 67.7 mg/kg bw and the “ADRβ2 ED50” value [3] was “– (compounds with a dash (-) did not activate the receptors in vitro at concentrations ≤ 300 µM)”. For the same compound, the “Predicted intrinsic hepatic metabolic clearance CLmet” value [4] was 2598 L/h, the “metabolism in incubations without co-factor mix” value [4] was “metabolized in incubations without co-factor mix” and the k el at 1 µM ([4]; 1 µM) was 0.000402 s⁻¹. The microsomal CLint at 1 µM [4, 9] was 243 µL/min/mg, the microsomal CLint at 1 µM [4, 10] was 241 µL/min/mg and the “ADRβ1 ED50” value [5] was “– (compounds with a dash (-) did not activate the receptors in vitro at concentrations ≤ 300 µM)”. For the same compound, the “ADRα1B ED50” value [6] was “– (compounds with a dash (-) did not activate the receptors in vitro at concentrations ≤ 300 µM)”, the “ADRα1A ED50” value [7] was “– (compounds with a dash (-) did not activate the receptors in vitro at concentrations ≤ 300 µM)” and the “ADRα2A ED50” value [8] was “– (compounds with a dash (-) did not activate the receptors in vitro at concentrations ≤ 300 µM)”.
